Data reported in patent publication US20260315653A1, “ANTICOAGULANT COMPOSITIONS COMPRISING ANTI-PLATELET AND ANTI-INFLAMMATORY DRUGS AND METHODS AND DEVICES FOR THEIR USE” (Elixir Medical Corporation, priority 2023, published 2026).
Several values for one entry are separate records, joined by “and”; a condition that tells them apart may be missing. Identical values can stand only once.

Tests used:
[1] = tested on: platelets (Tissue factor generated antiplatelet); details: cited from earlier work
[2] = tested on: blood clotting (citrated sheep blood); experiment: Net activated clotting time (net ACT) in citrated sheep blood (Examples 3-5); parameters: key: seconds; measured ACT minus blood control ACT (165 s); details: single drug, blood control 165 seconds
Experimental: The activated clotting time (ACT) evaluation of anticoagulants was performed in calcium citrate sheep blood and recorded employing the Hemochron® Response device. The ACT measurements were made in citrated sheep blood. 1.9 ml of citrated sheep blood was added to a test tube containing an activator (Hemochron@Celite@ ACT tubes, Lot F8FTE026 from Accriva Diagnostics, Inc.). A target amount of drug solution was then added into the test tube. The test tube was gently swirled so that the blood and drug were well-mixed. 0.1 ml of 0.3M calcium chloride was then added. The tube was gently shaken before being inserted into the Hemochron Response detector. The ACT read out was recorded and reported. The ACT of the control blood in the absence of any drug as first determined to establish a baseline. Here the blood control measured is 165 seconds. Then ACT was determined in the presence of different concentrations of the drug as a single component. In the following study, the net ACT (measured ACT minus blood control ACT) was utilized to visualize the synergistic effect of direct factor Xa inhibitor (Rivaroxaban) and direct factor IIa inhibitor (Argatroban) drug combinations. The figures are presented in ng/mg wherein the density of blood and tissue are approximately the same.
Example 4 is the continuation of example 3, which employed the same method as in example 3. The only difference is that the direct factor Xa inhibitor Edoxaban is used in place of direct factor Xa inhibitor Rivaroxaban.
Example 5 is the continuation of example 3, which employed the same method as in example 3. The only difference is that the direct factor Xa inhibitor Betrixaban is used in place of direct factor Xa inhibitor Rivaroxaban.

[3] = tested on: blood clotting (heparinized sheep blood); experiment: Net ACT initiated by platelet activation factor (PAF) and CaCl2 in heparinized sheep blood (Examples 6-11); details: single drug, 0.05 ng/mg; PAF & CaCl2; blood control 235 seconds
Experimental: In order to examine the potential synergistic effects between anti-inflammatory agents, direct factor Xa inhibitors, direct factor IIa inhibitors, antiplatelets (P2Y12 inhibitor and glycoprotein IIb/IIIa inhibitor, platelet activation factor and CaCl2 were utilized by measuring ACT. Heparinized sheep blood was used to preserve platelet function.
The activated clotting time (ACT) evaluation initiated by platelet activation factor (PAF) and calcium chloride (CaCl2) was performed in heparinized sheep blood and recorded employing the Hemochron® Response device. […] A target amount of drug solution was then added into the test tube. The test tube was gently swirled so that the blood and drug were well-mixed. […] The tube was gently shaken before being inserted into the Hemochron Response detector. The ACT read out was recorded and reported. The ACT of the control heparinized sheep blood in the absence of any drug as first measured to establish a baseline. […] Then ACT was measured in the presence of different concentrations of the drug measured. Selected drug combinations were then tested to evaluate for potential synergy in action between the drug combination. The net ACT (ACT minus blood control ACT) was utilized to visualize the synergistic effect. […] The figures are presented in ng/mg wherein the density of blood and tissue are approximately the same.

[4] = tested on: blood clotting (citrated sheep blood); experiment: Activated clotting time (ACT) in citrated sheep blood (Example 2); details: single drug, 0.6 ng/mg
Experimental: The activated clotting time (ACT) evaluation of anticoagulants was performed in calcium citrate sheep blood and recorded employing the Hemochron® Response device.
The ACT measurements were made in citrated sheep blood. 1.9 ml of citrated sheep blood was added to a test tube containing an activator (Hemochron@Celite@ ACT tubes, Lot F8FTE026 from Accriva Diagnostics, Inc.). A target amount of drug solution was then added into the test tube. The test tube was gently swirled so that the blood and drug was well-mixed. 0.1 ml of 0.3M calcium chloride was then added. The tube was gently shaken before being inserted into the Hemochron Response detector. The ACT read out was recorded and reported. The ACT of the control blood in the absence of any drug as first determined to establish a baseline. Then ACT was determined in the presence of different concentrations of the drug as a single component. Selected drug combinations were then tested to evaluate for potential synergy in action between the two drugs.

[5] = tested on: Human Aortic SMC (HAoSMC); experiment: HAoSMC cell proliferation assay (CellTiter Aqueous, 72 hours); type: cell-based
Experimental: Cell proliferation assay was done in 96-well format. Low passage cells were trypsinized and seeded in 96 well plates at a density of ~4000 cells/well. The cells are allowed to attach overnight in a CO2 incubator. Next day, the medium was removed and replaced with fresh complete medium containing various concentrations of the test compounds. The final concentration of vehicle (DMSO) in the test medium was 0.1%. After adding test compounds, the cells were incubated for 72 hours. Following this period, the medium was removed and then added fresh medium (100 μl) containing CellTiter Aqueous (1× concentration final) to the wells and incubated for 2 hours in the CO2 incubator. At the end of incubation measured […] with a plate-reader. Controlled incubations with untreated cells and blank incubations containing only medium were included and tested similarly. Based on the cell viability assay the percentage inhibition of the cell proliferation was determined at the different concentrations of the drug tested.
Following the cell proliferation assay as indicated earlier, the percent cell proliferation inhibition was determined, and the assay results plotted to determine the IC50.

[6] = tested on: Factor IIa; details: cited from earlier work
[7] = In vivo drug release from / drug remaining on implanted stents (HPLC); parameters: species or system porcine; details: 14 mm stents, day 7, n = 3
Experimental: The percentage and/or amount of each anticoagulant drug for or by each time point indicated were analyzed for each stent from the different devices in the example and the average drug tissue concentration reported.
Tissue concentrations and the amount of drug released from the stents were measured using stents implanted in porcine arteries for the drugs as indicated. The arteries at the designated time point were excised and a length of stented artery spanning from 5 mm proximal to the stented segment to 5 mm distal to the stented segment was cut. The stented artery was cut longitudinally with surgical scissors. The stents were separated from the tissue. The tissue content of each drug was analyzed using liquid chromatography mass spectroscopy (LCMS) and reported as a mean for each of the timepoint indicated. For drug remaining on each stent, each drug was extracted from the stent, measured using HPLC, and reported as a mean for each of the timepoint indicated as drug released or drug remaining on a stent (where drug remaining is equal to 100% minus the percentage of drug released).

[8] = tested on: porcine coronary artery; experiment: In vivo porcine coronary stent implantation: fibrin score and late lumen loss (Examples 25-26); details: Table 9, day 7
Experimental: The drug eluting stent systems containing different anticoagulants prepared as described in Example 11 were evaluated at 3 hours, 6 hours, 1 day, 3 days, 6 days, 7 days, or 28 days following implantation in a porcine coronary artery model.
The porcine model was chosen as this model has been used extensively for stent and angioplasty studies resulting in a large volume of data on the vascular response properties and its correlation to human vascular response (Schwartz et al, Circulation. 2002; 106:1867 1873). The animals were housed and cared for in accordance with the Guide for the Care and Use of Laboratory Animals as established by the National Research Council.
After induction of anesthesia, the left or right femoral artery was accessed using standard techniques and an arterial sheath was introduced and advanced into the artery. Vessel angiography was performed under fluoroscopic guidance, a 7 Fr. guide catheter was inserted through the sheath and advanced to the appropriate location where intracoronary nitroglycerin was administered. An appropriate implantation segment of coronary artery was randomly selected and a 0.014″ guidewire inserted. Quantitative Coronary Angiography (QCA) was performed to document the results. The appropriately size stent was advanced to the deployment site. The balloon was inflated at a steady rate to a pressure sufficient to achieve a balloon to artery ratio of approximately 1.1 to 1.0.
Follow up angiography was performed at the designated timepoint for each of the animals. Late lumen loss (LLL) can be expressed as: […]
The LLL is an indicator of the amount smooth muscle cell (SMC) proliferation or inhibition. It is used to measure efficacy between drugs for SMC proliferation inhibition. The smaller the LLL, the better the efficacy of the drug.
Stented portions of coronary arteries were embedded in methyl methacrylate (MMA), then divided into a target of at least three blocks of approximately similar lengths for histology evaluation. Quantitative histopathological evaluation of stented artery sections was then performed and scored as indicated. For Fibrin formation, scores ranged from 0 to 3, with a score of 0 indicating absent or rare minimal spotting around struts of the stent, a score of 1 indicating the presence of fibrin in small amounts localized only around the struts, a score of 2 indicating the moderately abundant or denser presence of fibrin around and extending beyond the struts, and a score of 3 indicating the presence of abundant and dense fibrin and/or bridging of the fibrin between the struts. The mean score was calculated and reported. The mean of each section was then averaged to provide a mean fibrin score per stent. The smaller the fibrin score, the better efficacy.

CC1CNc2c(cccc2S(=O)(=O)N[C@@H](CCCNC(=N)N)C(=O)N2CC[C@@H](C)C[C@@H]2C(=O)O)C1 (stereo partly drawn) [Argatroban]
IC50 [1]: 79 nM | IC50 for Tissue factor generated antiplatelet [1]: 0.04 ng/mg | net ACT ([2]; 0.15 ng/mg): 42 and 46 | net ACT ([2]; 0.3 ng/mg): 54 | net ACT [3]: 56 s | ACT [4]: 301 | HAoSMC proliferation inhibition [5]: small to no inhibition | IC50 for Anti-Factor IIa [6]: 0.0107 ng/mg | IC50 ([6]; read-out: IC50 for Anti-Factor IIa): 21 nM | Cumulative Percent Release of drug by day 7: Argatroban [7]: at least 96.9% | LLL / smooth muscle cell proliferation compared to bare metal control stents [8]: larger LLLs compared to control | inhibition of fibrin formation compared to bare metal control stents [8]: not effective at inhibiting fibrin formation
